The results in this text go back to the NIST ThermoML archive (doi:10.1016/j.fluid.2019.02.006).

± gives the expanded uncertainty stated by the source.

For data set [1] the following is noted: 298.15 K; 100 kPa; Liquid; Vibrating tube method.
A short description of data set [2]: xn = mol fraction of the nth substance listed. As to conditions: 298.15 K, 100 kPa, Liquid, Vibrating tube method.

What is called mass density is the mass of a sample divided by its volume. Take `C1CCCCC1` [cyclohexane]: the mass density in data set [1] is listed as 773.6 ± 1 kg/m3.

On to `C1CCCCC1` [cyclohexane] + CCCCCCCCCCO, for which the mass density in data set [2] (x1 = 1) is 773.6 ± 1 kg/m3.

Take `C1CCCCC1` [cyclohexane] + CCCCCCCCCO: in data set [2] (x1 = 1), the mass density amounted to 773.6 ± 1 kg/m3.

Regarding `C1CCCCC1` [cyclohexane] + CCCCCCCCO, the mass density in data set [2] (x1 = 1) came to 773.6 ± 1 kg/m3.

Turning to `C1CCCCC1` [cyclohexane] + CCCCCCCO, the mass density in data set [2] (x1 = 1) is 773.6 ± 1 kg/m3.

As for `C1CCCCC1` [cyclohexane] + CCCCCCO, in data set [2] (x1 = 1), the mass density worked out at 773.6 ± 1 kg/m3.

As to `C1CCCCC1` [cyclohexane] + CCCCCO, in data set [2] (x1 = 1), the mass density was 773.6 ± 1 kg/m3.

In the case of `CCCCCCCCCCO` [decan-1-ol], in data set [1], the mass density is recorded as 826.1 ± 1 kg/m3.

Consider `CCCCCCCCCCO` [decan-1-ol] + C1CCCCC1, for which the mass density in data set [2] (x2 = 0) came to 826.1 ± 1 kg/m3; in data set [2] (x2 = 0.0819), 823.7 ± 1 kg/m3; in data set [2] (x2 = 0.1596), 820.8 ± 1 kg/m3; in data set [2] (x2 = 0.2401) it was 817.6 ± 1 kg/m3; in data set [2] (x2 = 0.3482), 812.9 ± 1 kg/m3; in data set [2] (x2 = 0.4395), 808.7 ± 1 kg/m3. Also, the mass density is recorded as 802.6 ± 1 kg/m3 in data set [2] (x2 = 0.5598); 797.6 ± 1 kg/m3 in data set [2] (x2 = 0.6498); 792.3 ± 1 kg/m3 in data set [2] (x2 = 0.7404); 785.2 ± 1 kg/m3 in data set [2] (x2 = 0.849); 778.6 ± 1 kg/m3 in data set [2] (x2 = 0.9394).

`CCCCCCCO` [heptan-1-ol]: the mass density in data set [1] is reported as 818.7 ± 1 kg/m3.

Regarding `CCCCCCCO` [heptan-1-ol] + C1CCCCC1, the mass density stood at 818.7 ± 1 kg/m3 in data set [2] (x2 = 0); 815.5 ± 1 kg/m3 in data set [2] (x2 = 0.0805); 812.1 ± 1 kg/m3 in data set [2] (x2 = 0.1601); 808.7 ± 1 kg/m3 in data set [2] (x2 = 0.2392); 803.7 ± 1 kg/m3 in data set [2] (x2 = 0.3503); 799.7 ± 1 kg/m3 in data set [2] (x2 = 0.4391). Besides, the mass density in data set [2] (x2 = 0.5604) is 794 ± 1 kg/m3; in data set [2] (x2 = 0.6502), 789.8 ± 1 kg/m3; in data set [2] (x2 = 0.7396) it was 785.7 ± 1 kg/m3; in data set [2] (x2 = 0.8497), 780.5 ± 1 kg/m3; in data set [2] (x2 = 0.94), 776.4 ± 1 kg/m3.

As to `CCCCCCO` [hexan-1-ol], the mass density in data set [1] came to 815.1 ± 1 kg/m3.

Regarding `CCCCCCO` [hexan-1-ol] + C1CCCCC1, the mass density was 815.1 ± 1 kg/m3 in data set [2] (x2 = 0); 811.6 ± 1 kg/m3 in data set [2] (x2 = 0.0811); 808.2 ± 1 kg/m3 in data set [2] (x2 = 0.1597); 804.6 ± 1 kg/m3 in data set [2] (x2 = 0.2415); 799.8 ± 1 kg/m3 in data set [2] (x2 = 0.3498); 795.8 ± 1 kg/m3 in data set [2] (x2 = 0.4412). For the same compound, the mass density in data set [2] (x2 = 0.5588) was 790.7 ± 1 kg/m3; in data set [2] (x2 = 0.65), 786.8 ± 1 kg/m3; in data set [2] (x2 = 0.7404) it was 783.2 ± 1 kg/m3; in data set [2] (x2 = 0.8499), 778.8 ± 1 kg/m3; in data set [2] (x2 = 0.9398), 775.6 ± 1 kg/m3.

Take `CCCCCCCCCO` [nonan-1-ol]: in data set [1], the mass density amounted to 824 ± 1 kg/m3.

Consider `CCCCCCCCCO` [nonan-1-ol] + C1CCCCC1, for which the mass density in data set [2] (x2 = 0) turned out to be 824 ± 1 kg/m3; in data set [2] (x2 = 0.0817) it was 821.1 ± 1 kg/m3; in data set [2] (x2 = 0.1605), 818 ± 1 kg/m3; in data set [2] (x2 = 0.2409), 814.7 ± 1 kg/m3; in data set [2] (x2 = 0.3496) it was 810 ± 1 kg/m3; in data set [2] (x2 = 0.4399), 805.8 ± 1 kg/m3. Also, the mass density in data set [2] (x2 = 0.5606) worked out at 799.8 ± 1 kg/m3; in data set [2] (x2 = 0.6497), 795.1 ± 1 kg/m3; in data set [2] (x2 = 0.7406), 790 ± 1 kg/m3; in data set [2] (x2 = 0.8497), 783.6 ± 1 kg/m3; in data set [2] (x2 = 0.9403) it was 777.8 ± 1 kg/m3.

In the case of `CCCCCCCCO` [octan-1-ol], in data set [1], the mass density is on record as 821.4 ± 1 kg/m3.

For the compound `CCCCCCCCO` [octan-1-ol] + C1CCCCC1, the mass density in data set [2] (x2 = 0) came out at 821.4 ± 1 kg/m3; in data set [2] (x2 = 0.0815) it was 818.3 ± 1 kg/m3; in data set [2] (x2 = 0.1602) it was 815.1 ± 1 kg/m3; in data set [2] (x2 = 0.2408), 811.7 ± 1 kg/m3; in data set [2] (x2 = 0.3494) it was 806.9 ± 1 kg/m3; in data set [2] (x2 = 0.4398), 802.7 ± 1 kg/m3. For the same compound, the mass density is 796.8 ± 1 kg/m3 in data set [2] (x2 = 0.5605); 792.4 ± 1 kg/m3 in data set [2] (x2 = 0.6496); 787.8 ± 1 kg/m3 in data set [2] (x2 = 0.7404); 782 ± 1 kg/m3 in data set [2] (x2 = 0.8495); 777 ± 1 kg/m3 in data set [2] (x2 = 0.94).

Take `CCCCCO` [pentan-1-ol]: the mass density in data set [1] stood at 810.8 ± 1 kg/m3.

Turning to `CCCCCO` [pentan-1-ol] + C1CCCCC1, the mass density is listed as 810.8 ± 1 kg/m3 in data set [2] (x2 = 0); 807.1 ± 1 kg/m3 in data set [2] (x2 = 0.081); 803.6 ± 1 kg/m3 in data set [2] (x2 = 0.1607); 800.1 ± 1 kg/m3 in data set [2] (x2 = 0.2403); 795.4 ± 1 kg/m3 in data set [2] (x2 = 0.3487); 791.7 ± 1 kg/m3 in data set [2] (x2 = 0.4396). Also, the mass density worked out at 787 ± 1 kg/m3 in data set [2] (x2 = 0.5597); 783.7 ± 1 kg/m3 in data set [2] (x2 = 0.6498); 780.6 ± 1 kg/m3 in data set [2] (x2 = 0.7408); 777.1 ± 1 kg/m3 in data set [2] (x2 = 0.8499); 774.8 ± 1 kg/m3 in data set [2] (x2 = 0.9406).
